US20260364080A1, “PYRAZOLO-PYRIMIDINONE COMPOUNDS FOR USE IN METHODS OF INHIBITING WEE1 A KINASE” (Acrivon Therapeutics, Inc., priority 2023, published 2026)
Where two headings read alike, the source gives them in different places.

Legend:
[1] = biological target: T1, recombinant human Wee1A kinase (Homo sapiens, UniProt P30291); experiment: Wee1A kinase binding assay (LanthaScreen Eu time-resolved FRET)
T1 construct: full length Wee1 kinase was expressed by baculovirus in insect cells; purchased Invitrogen PV3817; host or cells: insect cells (baculovirus)
In short: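 Full-length, baculovirus-expressed GST-tagged Wee1A (5 nM) was mixed with 2 nM Eu-anti-GST antibody, 30 nM kinase tracer 178 and compound (1% DMSO). Buffer was 50 mM HEPES pH 7.5, 10 mM MgCl2, 1 mM EGTA, 0.01% Brij-35, incubated 60 min at room temperature. TR-FRET 665/615 nm emission ratios from duplicates were curve-fitted.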

[2] = biological target: T2, Myt1 kinase (recombinant PMYT-1) (Homo sapiens, UniProt Q99640); experiment: Myt1 kinase binding assay (LanthaScreen Eu Kinase Binding Assay)
T2 construct: full length PMYT-1 was expressed by baculovirus in insect cells; purchased Invitrogen A30984; host or cells: insect cells (baculovirus)
T2 sequence (Q99640 1-499): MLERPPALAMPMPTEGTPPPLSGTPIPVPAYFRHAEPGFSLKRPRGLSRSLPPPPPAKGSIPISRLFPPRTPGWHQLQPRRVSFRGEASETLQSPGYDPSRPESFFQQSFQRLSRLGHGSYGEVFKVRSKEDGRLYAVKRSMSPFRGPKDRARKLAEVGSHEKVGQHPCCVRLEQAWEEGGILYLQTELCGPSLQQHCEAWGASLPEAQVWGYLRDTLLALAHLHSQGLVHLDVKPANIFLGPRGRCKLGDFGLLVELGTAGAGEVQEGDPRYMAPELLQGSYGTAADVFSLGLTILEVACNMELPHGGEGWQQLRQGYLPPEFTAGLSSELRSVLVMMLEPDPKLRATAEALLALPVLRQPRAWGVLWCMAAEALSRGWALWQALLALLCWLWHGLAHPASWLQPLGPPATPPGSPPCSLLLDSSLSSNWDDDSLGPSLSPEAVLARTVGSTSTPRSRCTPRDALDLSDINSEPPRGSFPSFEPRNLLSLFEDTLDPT
In short: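 The binding affinity of compounds for Myt1 kinase was measured with a LanthaScreen Europium (Eu) Kinase Binding Assay, a time-resolved FRET format in which test compounds compete against a labeled kinase tracer, and the results were expressed as IC50 values describing compound binding to Myt1.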

[3] = biological target: T3, Wee1A kinase (CDK1 Tyr15 phosphorylation in ACHN renal cell carcinoma cells) (Homo sapiens, UniProt P30291); experiment: High-content imaging of pCdk1 Y15, Wee1A kinase target engagement in ACHN cells; assay type: cell-based
T3 construct: pCDK1 Tyr15 immunofluorescence read-out
In short: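 ACHN cells exposed to compound for 4 h over 7–5,000 nM or 0.3–200 nM, then fixed and immunostained for pCDK1 Y15 with DAPI nuclear counterstain. The percentage of pCdk1 Y15 nucleus-positive cells relative to DMSO control was imaged per well; EC50 from dose-response curves.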

[4] = 30 nM tracer 178, 5 nM Wee1A kinase, 2 nM Eu-labeled antibody, 60 minutes at room temperature, read-out: Wee1A kinase Binding IC50
[5] = 3 nM tracer 178, 2.5 nM PMYT-1, 1 nM Eu-labeled antibody, read-out: Myt1 kinase Binding IC50
[6] = 4 h treatment, nuclear positivity for pCdk1 Y15 vs DMSO control, read-out: CDK1 Tyr15 Phosphorylation EC50
[7] = Myt1 kinase Binding IC50, 3 nM tracer 178, 2.5 nM PMYT-1, 1 nM Eu-labeled antibody
[8] = read-out: CDK1 Tyr15 Phosphorylation EC50, 4 h treatment, nuclear positivity for pCdk1 Y15 vs DMSO control

T3 sequence (P30291 whole entry): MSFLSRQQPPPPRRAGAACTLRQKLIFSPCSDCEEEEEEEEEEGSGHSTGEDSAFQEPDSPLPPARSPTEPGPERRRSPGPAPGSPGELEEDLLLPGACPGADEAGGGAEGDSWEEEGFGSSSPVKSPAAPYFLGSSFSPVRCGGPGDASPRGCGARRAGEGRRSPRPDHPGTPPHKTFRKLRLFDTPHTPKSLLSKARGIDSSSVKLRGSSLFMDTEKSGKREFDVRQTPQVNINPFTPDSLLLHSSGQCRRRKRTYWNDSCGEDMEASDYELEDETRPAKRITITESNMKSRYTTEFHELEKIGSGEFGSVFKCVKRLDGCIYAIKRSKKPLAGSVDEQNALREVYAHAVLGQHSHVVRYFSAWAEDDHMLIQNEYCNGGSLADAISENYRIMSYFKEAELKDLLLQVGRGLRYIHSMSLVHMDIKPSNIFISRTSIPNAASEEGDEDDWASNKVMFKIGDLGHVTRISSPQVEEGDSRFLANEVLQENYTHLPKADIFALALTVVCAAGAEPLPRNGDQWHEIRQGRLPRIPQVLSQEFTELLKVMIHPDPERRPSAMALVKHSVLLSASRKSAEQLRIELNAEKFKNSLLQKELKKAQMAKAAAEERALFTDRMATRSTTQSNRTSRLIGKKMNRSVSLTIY
T1 sequence (P30291 whole entry): as above

| IC50 [1, 4] | IC50 [2, 5] | EC50 [3, 6] | IC50 [1] | IC50 [2, 7] | EC50 [3, 8] | SMILES |
| --- | --- | --- | --- | --- | --- | --- |
| < 0.01 µM | 0.02 to 0.1 µM | < 0.1 µM | – | – | – | C=CCn1c(=O)c2cnc(Nc3ccc4c(cnn4C(C)C)c3)nc2n1-c1ccnc(OC2CCNCC2)n1 [Compound 375, 2-allyl-6-((1-isopropyl-1H-indazol-5-yl)amino)-1-(2-(piperidin-4-yloxy)pyrimidin-4-yl)-1,2-dihydro-3H-pyrazolo[3,4-d]pyrimidin-3-one] |
| < 0.01 µM | 0.1 to 0.5 µM | < 0.1 µM | – | – | – | C=CCn1c(=O)c2cnc(Nc3ccc(OCC(F)(F)F)cc3)nc2n1-c1ccnc(OC2CCN(C3COC3)CC2)n1 [Compound 371, 2-allyl-1-(2-((1-(oxetan-3-yl)piperidin-4-yl)oxy)pyrimidin-4-yl)-6-((4-(2,2,2-trifluoroethoxy)phenyl)amino)-1,2-dihydro-3H-pyrazolo[3,4-d]pyrimidin-3-one] |
| < 0.01 µM | 0.1 to 0.5 µM | 0.1 to 0.5 µM | – | – | – | C=CCn1c(=O)c2cnc(Nc3ccc4c(cnn4C)c3)nc2n1-c1cccc(O[C@H]2CCN[C@H](C)C2)n1 (stereo in doubt) [Compound 379, 2-allyl-6-((1-methyl-1H-indazol-5-yl)amino)-1-(6-(((2R,4S)-2-methylpiperidin-4-yl)oxy)pyridin-2-yl)-1,2-dihydro-3H-pyrazolo[3,4-d]pyrimidin-3-one] |
| < 0.01 µM | 0.02 to 0.1 µM | 0.1 to 0.5 µM | – | – | – | C=CCn1c(=O)c2cnc(Nc3cncc(OC)c3)nc2n1-c1cccc(OC2CCN(C)CC2)n1 [Compound 342, 6-[(5-methoxypyridin-3-yl)amino]-1-{6-[(1-methylpiperidin-4-yl)oxy]pyridin-2-yl}-2-(prop-2-en-1-yl)-1H,2H,3H-pyrazolo[3,4-d]pyrimidin-3-one] |
| < 0.01 µM | < 0.02 µM | < 0.1 µM | – | – | – | C=CCn1c(=O)c2cnc(Nc3ccc4c(c3)nnn4C(C)C)nc2n1-c1cccc(OC2CCN(C)CC2)n1 [Compound 409, 2-allyl-6-((1-isopropyl-1H-benzo[d][1,2,3]triazol-5-yl)amino)-1-(6-((1-methylpiperidin-4-yl)oxy)pyridin-2-yl)-1,2-dihydro-3H-pyrazolo[3,4-d]pyrimidin-3-one] |
| < 0.01 µM | 0.1 to 0.5 µM | < 0.1 µM | – | – | – | C=CCn1c(=O)c2cnc(Nc3ccc4c(cnn4C)c3)nc2n1-c1cccc(N[C@@H]2CCN(C(C)C)C2)n1 [Compound 120, 6-[(1-methyl-1H-indazol-5-yl)amino]-2-(prop-2-en-1-yl)-1-(6-{[(3R)-1-(propan-2-yl)pyrrolidin-3-yl]amino}pyridin-2-yl)-1H,2H,3H-pyrazolo[3,4-d]pyrimidin-3-one] |
| < 0.01 µM | < 0.02 µM | 0.1 to 0.5 µM | – | – | – | CCn1c(=O)c2cnc(Nc3ccc(-c4ccccc4)cc3)nc2n1-c1cccc(OC2CCN(C)CC2)n1 [Compound 284, 6-(4-biphenylylamino)-2-ethyl-1-[6-(1-methyl-4-piperidyloxy)-2-pyridyl]-1,2-dihydro-3H-1,2,5,7-tetraazainden-3-one] |
| – | – | – | < 0.01 µM | 0.1 to 0.5 µM | 0.5 to 1 µM | C=CCn1c(=O)c2cnc(Nc3cnn(CCC(F)(F)F)c3)nc2n1-c1cccc(N(C)C2CCN(C)CC2)n1 [Compound 201, 2-allyl-1-(6-(methyl(1-methylpiperidin-4-yl)amino)pyridin-2-yl)-6-((1-(3,3,3-trifluoropropyl)-1H-pyrazol-4-yl)amino)-1,2-dihydro-3H-pyrazolo[3,4-d]pyrimidin-3-one] |
| < 0.01 µM | 0.1 to 0.5 µM | 0.1 to 0.5 µM | – | – | – | C=CCn1c(=O)c2cnc(Nc3ccc(Cl)c(C)c3)nc2n1-c1cccc(NC2CCNCC2)n1 [Compound 133, 2-allyl-6-(4-chloro-3-toluidino)-1-[6-(4-piperidylamino)-2-pyridyl]-1,2-dihydro-3H-1,2,5,7-tetraazainden-3-one] |
| < 0.01 µM | 0.1 to 0.5 µM | 0.1 to 0.5 µM | – | – | – | C=CCn1c(=O)c2cnc(Nc3ccc(OC(F)(F)F)c(C)c3)nc2n1-c1cccc(NC2CCNCC2)n1 [Compound 136, 6-{[3-methyl-4-(trifluoromethoxy)phenyl]amino}-1-{6-[(piperidin-4-yl)amino]pyridin-2-yl}-2-(prop-2-en-1-yl)-1H,2H,3H-pyrazolo[3,4-d]pyrimidin-3-one] |
| < 0.01 µM | 0.02 to 0.1 µM | < 0.1 µM | – | – | – | C=CCn1c(=O)c2cnc(Nc3ccc4nn(CC)cc4c3)nc2n1-c1cccc(OC2CCNCC2)n1 [Compound 276] |
| < 0.01 µM | 0.1 to 0.5 µM | 0.5 to 1 µM | – | – | – | C=CCn1c(=O)c2cnc(Nc3cc(C)cc(OC(F)(F)F)c3)nc2n1-c1cccc(NC2CCNCC2)n1 [Compound 155, 6-{[3-methyl-5-(trifluoromethoxy)phenyl]amino}-1-{6-[(piperidin-4-yl)amino]pyridin-2-yl}-2-(prop-2-en-1-yl)-1H,2H,3H-pyrazolo[3,4-d]pyrimidin-3-one] |
| < 0.01 µM | > 0.5 µM | > 1 µM | – | – | – | C=CCn1c(=O)c2cnc(Nc3ccc(Cl)cc3)nc2n1-c1cccc(N[C@@H]2CCCN(C)C2)n1 [Compound 168, 1-{6-[(R)-1-methyl-3-piperidylamino]-2-pyridyl}-2-allyl-6-(p-chlorophenylamino)-1,2-dihydro-3H-1,2,5,7-tetraazainden-3-one] |
| – | – | – | < 0.01 µM | > 0.5 µM | > 1 µM | C=CCn1c(=O)c2cnc(Nc3cnn(CC(C)(C)F)c3)nc2n1-c1cccc(N(C)C2CCNCC2)n1 [Compound 183, 1-[6-(N-methyl-N-4-piperidylamino)-2-pyridyl]-2-allyl-6-[1-(2-fluoro-2-methylpropyl)-4-pyrazolylamino]-1,2-dihydro-3H-1,2,5,7-tetraazainden-3-one] |
| < 0.01 µM | 0.02 to 0.1 µM | < 0.1 µM | – | – | – | C=CCn1c(=O)c2cnc(Nc3ccc4c(cnn4C)c3)nc2n1-c1cccc(OC2CCCNCC2)n1 (single isomer, unassigned) [Compound 357] |
| < 0.01 µM | 0.02 to 0.1 µM | 0.1 to 0.5 µM | – | – | – | C=CCn1c(=O)c2cnc(Nc3ccc4ncnn4c3)nc2n1-c1cccc(OC2CCN(C)CC2)n1 [Compound 249, 2-allyl-6-(1,3,3a-triaza-5-indenylamino)-1-[6-(1-methyl-4-piperidyloxy)-2-pyridyl]-1,2-dihydro-3H-1,2,5,7-tetraazainden-3-one] |
| < 0.01 µM | 0.1 to 0.5 µM | 0.5 to 1 µM | – | – | – | C=CCn1c(=O)c2cnc(Nc3ccc(C(F)(F)F)cc3)nc2n1-c1cccc(NC2CCNCC2)n1 [Compound 131, 2-allyl-1-[6-(4-piperidylamino)-2-pyridyl]-6-[p-(trifluoromethyl)phenylamino]-1,2-dihydro-3H-1,2,5,7-tetraazainden-3-one] |
| < 0.01 µM | 0.02 to 0.1 µM | 0.1 to 0.5 µM | – | – | – | C=CCn1c(=O)c2cnc(Nc3ccc4nccn4c3)nc2n1-c1cccc(OC2CCN(C)CC2)n1 [Compound 328, 6-(1,3a-diaza-5-indenylamino)-2-allyl-1-[6-(1-methyl-4-piperidyloxy)-2-pyridyl]-1,2-dihydro-3H-1,2,5,7-tetraazainden-3-one] |
| < 0.01 µM | < 0.02 µM | 0.1 to 0.5 µM | – | – | – | C=CCn1c(=O)c2cnc(Nc3ccc(F)cc3)nc2n1-c1ccnc(OC2CCNCC2)n1 [Compound 247, 2-allyl-6-((4-fluorophenyl)amino)-1-(2-((piperidin-4-yl)oxy)pyrimidin-4-yl)-1,2-dihydro-3H-pyrazolo[3,4-d]pyrimidin-3-one] |
| – | – | – | < 0.01 µM | > 0.5 µM | > 1 µM | C=CCn1c(=O)c2cnc(Nc3ccc(Cl)cc3)nc2n1-c1cccc(N(CCC)C2CCNCC2)n1 [Compound 147] |
| < 0.01 µM | < 0.02 µM | < 0.1 µM | – | – | – | C=CCn1c(=O)c2cnc(Nc3ccc4c(cnn4C4CC4)c3)nc2n1-c1cccc(OC2CCNCC2)n1 [Compound 376, 2-allyl-6-((1-cyclopropyl-1H-indazol-5-yl)amino)-1-(6-(piperidin-4-yloxy)pyridin-2-yl)-1,2-dihydro-3H-pyrazolo[3,4-d]pyrimidin-3-one] |
